Consider 23 compounds from patent US20240400553A1, “AMINE BASED MATRIPTASE 2 INHIBITORS AND USES THEREOF” (Disc Medicine, Inc., priority 2023, published 2024).

Some results are limits rather than exact numbers.

The target of one assay is T1, Human Recombinant Matriptase 2 (Homo sapiens, UniProt Q8IU80).
T1 construct: made in house
T1 sequence (Q8IU80 1-811): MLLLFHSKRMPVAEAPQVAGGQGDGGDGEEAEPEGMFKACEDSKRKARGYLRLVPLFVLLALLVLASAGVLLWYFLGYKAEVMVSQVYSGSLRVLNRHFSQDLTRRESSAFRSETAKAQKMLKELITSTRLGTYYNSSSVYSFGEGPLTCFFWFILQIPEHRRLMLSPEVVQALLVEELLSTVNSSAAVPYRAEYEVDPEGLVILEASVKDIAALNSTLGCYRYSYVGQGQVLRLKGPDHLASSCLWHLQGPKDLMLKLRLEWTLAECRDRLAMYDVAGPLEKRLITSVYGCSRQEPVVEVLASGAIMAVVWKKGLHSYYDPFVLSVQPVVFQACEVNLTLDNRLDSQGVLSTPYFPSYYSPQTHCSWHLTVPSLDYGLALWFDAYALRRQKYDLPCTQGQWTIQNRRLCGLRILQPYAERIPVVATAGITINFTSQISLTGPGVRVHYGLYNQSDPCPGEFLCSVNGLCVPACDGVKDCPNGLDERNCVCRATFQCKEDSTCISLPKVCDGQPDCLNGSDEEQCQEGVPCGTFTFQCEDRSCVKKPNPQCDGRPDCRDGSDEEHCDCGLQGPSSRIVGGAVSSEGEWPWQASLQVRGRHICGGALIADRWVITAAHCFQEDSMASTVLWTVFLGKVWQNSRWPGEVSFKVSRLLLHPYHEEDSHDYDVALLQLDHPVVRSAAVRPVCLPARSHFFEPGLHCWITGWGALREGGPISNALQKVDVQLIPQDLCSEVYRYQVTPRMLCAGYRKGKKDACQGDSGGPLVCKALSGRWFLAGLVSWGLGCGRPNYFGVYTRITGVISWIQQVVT
The assay is described as follows: Matriptase 2 inhibition, fluorescence based assay (Method I). The assay is classed as biochemical. The note with it: Table A; Ki of Matriptase-2, class symbols; read-out: Mat-2 Ki. The method, then: • Method I: Test compounds were evaluated for their potential to inhibit Human Recombinant Matriptase 2 (in-house) using fluorescence based assay. The concentration of Recombinant Matriptase 2 and the substrate used in the assay was: 3.5 nM (In-house Matriptase 2) and 62 μM (Boc-Gln-Ala-Arg-7-amido-4-methyl coumarin hydrobromide −Cat log: I-1550 from Bachem) respectively. The assay buffer used was 50 mM TRIS pH 7.5, 150 mM NaCl, 0.01% Gelatin TCL059 Himedia). The assay was performed using 384 well black flat bottom plate from grenier (Cat log: 781076) at 25° C. The enzyme and compound were preincubated for 30 mins, the plate was read at 60 mins after substrate addition at wavelength Ex: 360/Em: 480 nm. The final assay volume was 20 μl. A stock solution of compounds was initially prepared in DMSO and appropriate dilutions were made and IC50 was determined for all the compounds (final DMSO conc in the assay was 1%). All the measurements were carried out using the Spectramax M5, Molecular devices.
To determine Ki values, dose response curves were generated by plotting percentage inhibition as a function of inhibitor concentration and the data was fitted to sigmoidal non-linear regression equation (variable slope) using Graph Pad prism software V8.
`NCc1ccc2cc(-c3nnn[nH]3)n(Cc3cc(NS(=O)(=O)CC[C@@H]4CCCN4)cc4ccccc34)c2c1` [Compound 399, (S)—N-(4-((6-(aminomethyl)-2-(1H-tetrazol-5-yl)-1H-indol-1-yl)methyl)naphthalen-2-yl)-2-(pyrrolidin-2-yl) ethane-1-sulfonamide]: the inhibition constant (Ki) fell in the range of 100 to 500 nM.

Still in this assay, the particulars now being: Table A; Ki of Matriptase-2; read-out: Mat-2 Ki.
`CN1CCN[C@@H](COC(=O)c2cc3ccc(CN)nc3n2Cc2cc(NS(=O)(=O)Cc3ccccc3)cc3ccccc23)C1` (racemic) [Compound 41, (4-methylpiperazin-2-yl)methyl 6-(aminometh-yl)-1-{[3-(phenylmeth-ane-sulfonamido)naph-thalen-1-yl]methyl}-1H-pyrrolo[2,3-b]pyridine-2-carboxylate]: the Ki is at most 100 nM.
On to `COCCN1CCC(COC(=O)c2cc3ccc(CN)nc3n2Cc2cc(NS(=O)(=O)Cc3ccccc3)cc3ccccc23)CC1` [Compound 142, [1-(2-methoxyethyl)-piperidin-4-yl]methyl 6-(aminomethyl)-1-{[3-(phenylmethanesulfon-amido)naphthalen-1-yl]-methyl}-1H-pyrrolo[2,3-b]pyridine-2-carboxylate], for which the inhibition constant (Ki) is 100 to 500 nM.
Same read-out and setting: then `NCc1ccc2cc(C(=O)OCCF)n(Cc3cc(NS(=O)(=O)Cc4ccccc4)cc4ccccc34)c2n1` [Compound 105, 2-fluoroethyl 6-(amino-methyl)-1-{[3-(phenyl-methanesulfonamido)-naphthalen-1-yl]methyl}-1H-pyrrolo[2,3-b]pyr-idine-2-carboxylate], with 100 to 500 nM; and `Cn1nccc1COC(=O)c1cc2ccc(CN)nc2n1Cc1cc(NS(=O)(=O)Cc2ccccc2)cc2ccccc12` [Compound 68, (1-methyl-1H-pyrazol-5-yl)methyl 6-(amino-methyl)-1-{[3-(phenyl-methanesulfonamido)-naphthalen-1-yl]meth-yl}-1H-pyrrolo[2,3-b]-pyridine-2-carboxylate], with at most 100 nM; and `CN1CCC(COC(=O)c2cc3ccc(CN)nc3n2Cc2cc(NS(=O)(=O)Cc3sccc3F)cc3ccccc23)CC1` [Compound 147, (1-methylpiperidin-4-yl)-methyl 6-(aminomethyl)-1-({3-[(3-fluorothiophen-2-yl)methanesulfon-amido]naphthalen-1-yl}-methyl)-1H-pyrrolo[2,3-b]pyridine-2-carboxylate], with at most 100 nM.
Take `CN1CCC(CCOC(=O)c2cc3ccc(CN)nc3n2Cc2cc(NS(=O)(=O)Cc3ccccc3)cc3ccccc23)CC1` [Compound 39, 2-(1-methylpiperidin-4-yl)ethyl 6-(aminometh-yl)-1-{[3-(phenylmeth-anesulfonamido)naph-thalen-1-yl]methyl}-1H-pyrrolo[2,3-b]pyridine-2-carboxylate]: the Ki is at most 100 nM.
With `CN1CCC(COC(=O)c2cc3ccc(CN)nc3n2Cc2cc(NS(=O)(=O)CC[C@@H]3CCCN3)cc3ccccc23)CC1` [Compound 2], the inhibition constant Ki is 500 to 3000 nM.
As to `Cc1oc(=O)oc1COC(=O)c1cc2ccc(CN)nc2n1Cc1cc(NS(=O)(=O)Cc2ccccc2)cc2ccccc12` [Compound 88, (5-methyl-2-oxo-2H-1,3-dioxol-4-yl)methyl 6-(aminomethyl)-1-{[3-(phenylmethanesulfon-amido)naphthalen-1-yl]-methyl}-1H-pyrrolo[2,3-b]pyridine-2-carboxylate], the Ki was 100 to 500 nM.
As for `CCOC(=O)c1cc2ccc(CN)nc2n1Cc1cc(NS(=O)(=O)Cc2cccs2)cc2ccccc12` [Compound 154, ethyl 6-(aminomethyl)-1-({3-[(thiophen-2-yl)-methanesulfonamido]-naphthalen-1-yl}methyl)-1H-pyrrolo[2,3-b]pyr-idine-2-carboxylate], the inhibitory constant (Ki) was in the range of 100 to 500 nM.
In the case of `COCCOC(=O)c1cc2ccc(CN)nc2n1Cc1cc(NS(=O)(=O)Cc2ccccc2)cc2ccccc12` [Compound 95, 2-methoxyethyl 6-(aminomethyl)-1-{[3-(phenylmethanesulfon-amido)naphthalen-1-yl]-methyl}-1H-pyrrolo[2,3-b]pyridine-2-carboxylate], the inhibition constant Ki was 100 to 500 nM.

The assay is the same for the next values; noted with them: Table A; Ki of Matriptase-2 given as class symbols; read-out: Mat-2 Ki.
Regarding `Cc1conc1CS(=O)(=O)Nc1cc(Cn2c(C(=O)O)cc3ccc(CN)nc32)c2ccccc2c1` [Compound 243, 6-(aminomethyl)-1-({3-[(4-methyl-1,2-oxazol-3-yl)methanesulfonamido]-naphthalen-1-yl}methyl)-1H-pyrrolo[2,3-b]pyr-idine-2-carboxylic acid], the Ki was 100 to 500 nM.
`CN(C)CCOC(=O)c1cc2ccc(CN)nc2n1Cc1cc(NS(=O)(=O)CC2CCNCC2)cc2ccccc12` [Compound 271, 2-(dimethylamino)ethyl 6-(aminomethyl)-1-({3-[(piperidin-4-yl)meth-anesulfonamido]naph-thalen-1-yl}methyl)-1H-pyrrolo[2,3-b]pyridine-2-carboxylate]: the inhibition constant Ki fell in the range of 500 to 3000 nM.
For `NCc1ccc2cc(C(=O)O)n(Cc3cc(NS(=O)(=O)Cc4ccccc4)cc4c3CCCC4)c2n1` [Compound 285, 6-(aminomethyl)-1-((3-((phenylmethyl)sulfonamido)-5,6,7,8-tetrahydronaphthalen-1-yl)methyl)-1H-pyrrolo[2,3-b]pyridine-2-carboxylic acid], the inhibition constant Ki lay within 100 to 500 nM.
In the case of `C[C@H]1CCC(C)(C)N1C(=O)Nc1cc(Cn2c(C(=O)O)cc3ccc(CN)nc32)c2ccccc2c1` (racemic) [Compound 302, rac-6-(aminomethyl)-1-[(3-{[(SR)-2,2,5-trimeth-ylpyrrolidine-1-carbon-yl]amino}naphthalen-1-yl)methyl]-1H-pyrrolo-[2,3-b]pyridine-2-carbox-ylic acid], the Ki is 500 to 3000 nM.
Take `CN(C)CCOC(=O)c1cc2ccc(CN)nc2n1Cc1cc(NS(=O)(=O)CC[C@@H]2CCCN2)cc2ccccc12` [Compound 284, 2-(dimethylamino)ethyl 6-(aminomethyl)-1-[(3-{2-[(2S)-pyrrolidin-2-yl]ethanesulfonamido}-naphthalen-1-yl)methyl]-1H-pyrrolo[2,3-b]pyr-idine-2-carboxylate]: the Ki fell in the range of 500 to 3000 nM.
For the compound `CN1CCC[C@H]1CCS(=O)(=O)Nc1cc(Cn2c(C(=O)O)cc3ccc(CN)nc32)c2ccccc2c1` [Compound 235, 6-(aminomethyl)-1-[(3-{2-[(2S)-1-methylpyr-rolidin-2-yl]ethanesul-fonamido}naphthalen-1-yl)methyl]-1H-pyrrolo-[2,3-b]pyridine-2-car-boxylic acid], the Ki was in the range of 100 to 500 nM.
Consider `NCc1ccc2cc(C(=O)O)n(Cc3cc(NC(=O)N4CC5CC(C5)C4)cc4ccccc34)c2n1` [Compound 308, 6-(aminomethyl)-1-{[3-({3-azabicyclo[3.1.1]-heptane-3-carbonyl}-amino)naphthalen-1-yl]-methyl}-1H-pyrrolo[2,3-b]pyridine-2-carboxylic acid], for which the inhibition constant (Ki) fell in the range of 500 to 3000 nM.
In the case of `NCc1ccc2cc(C(=O)O)n(Cc3cc(NS(=O)(=O)CCn4cnnn4)cc4ccccc34)c2n1` [Compound 226, 6-(aminomethyl)-1-({3-[2-(1H-1,2,3,4-tetrazol-1-yl)ethanesulfonamido]-naphthalen-1-yl}methyl)-1H-pyrrolo[2,3-b]pyr-idine-2-carboxylic acid], the inhibition constant (Ki) was in the range of 100 to 500 nM.

The same assay, now with this note: Table B; Human Recombinant Matriptase 2, 3.5 nM enzyme, 62 μM substrate, 30 mins preincubation; read-out: Mean Ki.
`Cc1cccc(C)c1CS(=O)(=O)Nc1cc2c(c(Cn3c(C(=O)OCc4cncn4C(C)(C)C)cc4ccc(CN)nc43)c1)CCCC2` [Compound 2.42]: the inhibition constant (Ki) is 100 to 500 nM.
Still for that read-out and setting: then `CN1CCC(COC(=O)c2cc3ccc(CN)nc3n2Cc2cc(NS(=O)(=O)Cc3ccsc3)cc3c2CCCC3)CC1=O` (centres unmarked) [Compound 2.22], with at most 100 nM; and `Cc1cccc(C)c1CS(=O)(=O)Nc1cc2c(c(Cn3c(C(=O)OCC4CCN(C)CC4)cc4ccc(CN)nc43)c1)CCCC2` [Compound 2.43], with at most 100 nM.
As for `CN1CCC(COC(=O)c2cc3ccc(CN)nc3n2Cc2cc(NS(=O)(=O)CC3CC3)cc3ccccc23)CC1` [Compound 2.28], the Ki is 100 to 500 nM.
